# Source: patent US20240041976A1, “COMPOSITION AND USE” (priority 2020, published 2024)
# B1: Garvicin KS: three-peptide leaderless bacteriocin (GarA, GarB, GarC; SEQ ID NO:6-8), peptides synthesized (peptide, listed as Lactococcus garvieae)
# chain 1: MGAIIKAGAKIVGKGVLGGGASWLGWNVGEKIWK
# chain 2: MGAIIKAGAKIIGKGLLGGAAGGATYGGLKKIFG
# chain 3: MGAIIKAGAKIVGKGALTGGGVWLAEKLFGGK
# How the values were obtained:
# [1] = system: S. aureus biofilms (six strains); assay: BOAT, summary over strains; format: cell-based, Staphylococcus aureus
# Experimental: The BOAT assay was performed as described previously (Gronseth et al., 2017, Int. J. Pediatr. Otorhinolaryngol., Vol. 103, p 58-64) with some modifications. The serial dilutions of the antimicrobials were prepared in challenge plates as follows: 175 μl of TSB were transferred in each row of a 96-well microtiter plate, except for the first row, according to the number of microbial strains to treat. In the first row of the plate, the antimicrobials were diluted to their respective working concentrations in a final volume of 350 μl of TSB. From the first row, 175 μl of the antimicrobial dilutions were then transferred to the second row of the plate and further serially diluted to the bottom of the plate. The same procedure was followed to prepare the controls, except that instead of the antimicrobials an equivalent volume of the respective vehicles were used. […] The results were then assessed by monitoring the development (or not) of red formazan (red colour), denoting the retention of metabolic activity by bacterial cells (Moussa et al., 2013, J. Mycol., Vol. 2013; Perez et al., 2010, Lett. Appl. Microbiol., Vol. 51, p 331-337). […] The amount of extracted dye, reflecting the degree of bacterial cell metabolic activity, was then quantified by spectrophotometric readings at 492 nm.
# [2] = system: clinical S. aureus strains from leprosy-associated skin ulcers (biofilms); assay: BOAT on clinical isolates; format: cell-based, Staphylococcus aureus; details: 14 clinical S. aureus isolates
# From the text: Leprosy patients with plantar ulcers who were registered at LEPRA Society, BPHRC, Hyderabad, India during December 2018 through May 2019 (n=31) were enrolled into the study after obtaining an informed consent. The study protocol was approved by the Institutional Ethical Committee at LEPRA Society. A total of thirty-one wound swabs were collected using sterile pure viscose swab (Hi-media, Mumbai, India) and transported immediately for further processing to the microbiology laboratory. One swab was collected from each leprosy foot ulcer. Each swab was inoculated on Blood and McConkey agar and incubated at 37° C. overnight and the plates were examined for growth on the following day. Cultures were identified by colony morphology, Gram staining and other standard tests. […]
# The BOAT assay was performed as described previously (Gronseth et al., 2017, Int. J. Pediatr. Otorhinolaryngol., Vol. 103, p 58-64) with some modifications. […] The results were then assessed by monitoring the development (or not) of red formazan (red colour), denoting the retention of metabolic activity by bacterial cells (Moussa et al., 2013, J. Mycol., Vol. 2013; Perez et al., 2010, Lett. Appl. Microbiol., Vol. 51, p 331-337). […] The amount of extracted dye, reflecting the degree of bacterial cell metabolic activity, was then quantified by spectrophotometric readings at 492 nm.
Molecule,"effect on biofilm-associated metabolic activity (BOAT) ([1]; six strains, up to 5 mg/ml garvicin KS, 0.1 mg/ml micrococcin P1)",increase in resistance compared to the planktonic state ([1]; some of the biofilm producers),antimicrobial activity in BOAT on clinical isolates [2]
"C/C=C(\NC(=O)c1csc(-c2csc(-c3ccc4c(n3)-c3csc(n3)[C@H]([C@@H](C)O)NC(=O)c3csc(n3)[C@H](C(C)C)NC(=O)c3csc(n3)/C(=C/C)NC(=O)[C@H]([C@@H](C)O)NC(=O)c3csc-4n3)n2)n1)C(=O)NC[C@@H](C)O [MP1, micrococcin P1]",ineffective against all the strains,over 160 fold,–
B1,–,–,showed antimicrobial activity against all the strains
